# Experimental data reported in PubChem BioAssay (NCI).
#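 At the GI50, growth is halved. TGI denotes the concentration required for complete inhibition of growth.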
# Columns and labels:
# Assay in all cases: NCI tumour cell line growth inhibition, 384-well format
# [1] = test system: 786-0 renal
# [2] = test system: A498 renal
# [3] = test system: ACHN renal
# [4] = test system: BT-549 breast
# [5] = test system: CAKI-1 renal
# [6] = test system: COLO 205 colon
# [7] = test system: DU-145 prostate
# [8] = test system: EKVX NSCLC
# [9] = test system: HCT-116 colon
# [10] = test system: HCT-15 colon
# [11] = test system: HL-60(TB) leukemia
# [12] = test system: HOP-62 NSCLC
# [13] = test system: HOP-92 NSCLC
# [14] = test system: HS 578T breast
# [15] = test system: HT29 colon
# [16] = test system: IGROV1 ovarian
# [17] = test system: K-562 leukemia
# [18] = test system: KM12 colon
# [19] = test system: M14 melanoma
# [20] = test system: MALME-3M melanoma
# [21] = test system: MDA-MB-231 breast
# [22] = test system: MDA-MB-435 melanoma
# [23] = test system: MDA-MB-468 breast
# [24] = test system: MOLT-4 leukemia
# [25] = test system: NCI-H226 lung
# [26] = test system: NCI-H23 lung
# [27] = test system: NCI-H322M lung
compound,measurement,setting,value
Nc1nn2cc(F)cnc2c1C(=O)Nc1cncc(F)c1N1CCC(C(=O)N2CCN(C3COC3)CC2)CC1,GI50,[1],103 nM
same,TGI,[1],323 nM
same,GI50,[2],34.5 nM
same,TGI,[2],207 nM
same,GI50,[3],46.9 nM
same,TGI,[3],251 nM
same,GI50,[4],24.5 nM
same,TGI,[4],84.4 nM
same,GI50,[5],185 nM
same,TGI,[5],1470 nM
same,GI50,[6],218 nM
same,TGI,[6],2090 nM
same,GI50,[7],70.5 nM
same,TGI,[7],954 nM
same,GI50,[8],132 nM
same,TGI,[8],615 nM
same,GI50,[9],92.9 nM
same,TGI,[9],1750 nM
same,GI50,[10],34.7 nM
same,TGI,[10],208 nM
same,GI50,[11],37.4 nM
same,TGI,[11],83.8 nM
same,GI50,[12],21.4 nM
same,TGI,[12],218 nM
same,GI50,[13],47.9 nM
same,TGI,[13],539 nM
same,GI50,[14],13 nM
same,TGI,[14],42.2 nM
same,GI50,[15],302 nM
same,TGI,[15],> 100000 nM
same,GI50,[16],170 nM
same,TGI,[16],1540 nM
same,GI50,[17],48.2 nM
same,TGI,[17],179 nM
same,GI50,[18],32.7 nM
same,TGI,[18],727 nM
same,GI50,[19],35 nM
same,TGI,[19],378 nM
same,GI50,[20],18.8 nM
same,TGI,[20],53.2 nM
same,GI50,[21],789 nM
same,TGI,[21],> 100000 nM
same,GI50,[22],35.7 nM
same,TGI,[22],308 nM
same,GI50,[23],29.4 nM
same,TGI,[23],324 nM
same,TGI,[24],11.8 nM
same,GI50,[25],327 nM
same,TGI,[25],2240 nM
same,GI50,[26],16.9 nM
same,TGI,[26],55.2 nM
same,GI50,[27],33.9 nM
